Test results reported in PubChem BioAssay AID342 (DTP/NCI, 2004).
Where “and” joins values, the source holds several entries; their conditions need not be identical. Equal values may be shown once. Square brackets hold non-standard residues; d marks the D form. Peptide text beside a SMILES is read from it. ξ: configuration not given here. Ac5c = NC1(C(=O)O)CCCC1; ξS = NC(CO)C(=O)O

Tested on: Swiss mice, Sarcoma 180 sc, mean tumor weight T/C
Test: NCI In Vivo Anticancer Drug Screen. Data for tumor model Sarcoma 180 (subcutaneous) in Swiss mice
Conditions: endpoint: mean tumor weight, higher = larger tumour
How it was run: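 Readout is the ratio of treated-group measurement to vehicle-control measurement (T/C), based on survival or tumor size in mice carrying transplanted tumors.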

[1] = dose: 12.0 mg/kg/injection, schedule: Q01DX007 (ip), vehicle: carboxymethylcellulose (CMC)
[2] = dose: 12.5 mg/kg/injection, schedule: Q01DX007 (ip), vehicle: saline
[3] = dose: 125.0 mg/kg/injection, schedule: Q01DX007 (ip), vehicle: carboxymethylcellulose (CMC)
[4] = dose: 50.0 mg/kg/injection, schedule: Q01DX007 (ip), vehicle: carboxymethylcellulose (CMC)
[5] = dose: 25.0 mg/kg/injection, schedule: Q01DX007 (ip), vehicle: saline
[6] = dose: 100.0 mg/kg/injection, schedule: Q01DX007 (ip), vehicle: saline
[7] = dose: 200.0 mg/kg/injection, schedule: Q01DX007 (ip), vehicle: saline

Structure (SMILES): CCOC(=O)C(N)Cc1ccc(N(CCCl)CCCl)cc1 (configuration not stated)
- T/C (dose: 1.4 mg/kg/injection, schedule: Q01DX007 (ip), vehicle: saline): 41 % of control
- T/C (dose: 2.7 mg/kg/injection, schedule: Q01DX007 (ip), vehicle: saline): 93 % of control
- T/C (dose: 4.1 mg/kg/injection, schedule: Q01DX007 (ip), vehicle: saline): 9 % of control
- T/C (dose: 5.0 mg/kg/injection, schedule: Q01DX007 (ip), vehicle: carboxymethylcellulose (CMC)): 90 % of control
- T/C (dose: 5.5 mg/kg/injection, schedule: Q01DX007 (ip), vehicle: saline): 32 % of control and 49 % of control
- T/C (dose: 8.0 mg/kg/injection, schedule: Q01DX007 (ip), vehicle: carboxymethylcellulose (CMC)): 83 % of control
- T/C (dose: 8.3 mg/kg/injection, schedule: Q01DX007 (ip), vehicle: saline): 15 % of control and 20 % of control
- T/C [1]: 59 % of control
- T/C [2]: 7 % of control
- T/C (dose: 18.0 mg/kg/injection, schedule: Q01DX007 (ip), vehicle: carboxymethylcellulose (CMC)): 29 % of control and 42 % of control
- T/C (dose: 27.0 mg/kg/injection, schedule: Q01DX007 (ip), vehicle: carboxymethylcellulose (CMC)): 15 % of control

Structure (SMILES): CCCCN(C)/N=N/c1nc[nH]c1C(N)=O
- T/C (dose: 31.0 mg/kg/injection, schedule: Q01DX007 (ip), vehicle: carboxymethylcellulose (CMC)): 44 % of control
- T/C (dose: 62.0 mg/kg/injection, schedule: Q01DX007 (ip), vehicle: carboxymethylcellulose (CMC)): 31 % of control
- T/C [3]: 14 % of control

Structure (SMILES): Nc1ccc2c(c1)Cc1cc(NC=O)ccc1-2
- T/C (dose: 55.5 mg/kg/injection, schedule: Q01DX007 (ip), vehicle: carboxymethylcellulose (CMC)): 98 % of control
- T/C (dose: 83.3 mg/kg/injection, schedule: Q01DX007 (ip), vehicle: carboxymethylcellulose (CMC)): 52 % of control
- T/C [3]: 72 % of control
- T/C (dose: 187.5 mg/kg/injection, schedule: Q01DX007 (ip), vehicle: carboxymethylcellulose (CMC)): 36 % of control

Structure (SMILES): C/C=C1/CN(C)C2Cc3c([nH]c4ccccc34)C(c3cc4[nH]c5c(c4cc3OC)CCN3CC4CC(C(C)O)C3C5(C(=O)OC)C4)CC1C2C(=O)OC (configuration not stated)
- T/C (dose: 10.0 mg/kg/injection, schedule: Q01DX007 (ip), vehicle: water): 54 % of control
- T/C (dose: 20.0 mg/kg/injection, schedule: Q01DX007 (ip), vehicle: water): 97 % of control
- T/C (dose: 30.0 mg/kg/injection, schedule: Q01DX007 (ip), vehicle: water): 87 % of control
- T/C (dose: 40.0 mg/kg/injection, schedule: Q01DX007 (ip), vehicle: water): 80 % of control

Structure (SMILES): CCN(CC)CCNc1ccc([N+](=O)[O-])c2sc3ccccc3c(=O)c12
- T/C (dose: 14.0 mg/kg/injection, schedule: Q#A X014 (ip), vehicle: saline): 71 % of control
- T/C (dose: 21.0 mg/kg/injection, schedule: Q#A X014 (ip), vehicle: saline): 65 % of control
- T/C (dose: 31.5 mg/kg/injection, schedule: Q#A X014 (ip), vehicle: saline): 65 % of control
- T/C (dose: 47.5 mg/kg/injection, schedule: Q#A X014 (ip), vehicle: saline): 34 % of control

Structure (SMILES): O=S(=O)(O)c1cccnc1
- T/C (dose: 17.47 mg/kg/injection, schedule: Q#A X014 (ip), vehicle: carboxymethylcellulose (CMC)): 70 % of control
- T/C (dose: 31.25 mg/kg/injection, schedule: Q#A X014 (ip), vehicle: carboxymethylcellulose (CMC)): 64 % of control
- T/C (dose: 34.94 mg/kg/injection, schedule: Q#A X014 (ip), vehicle: carboxymethylcellulose (CMC)): 80 % of control
- T/C (dose: 62.5 mg/kg/injection, schedule: Q#A X014 (ip), vehicle: carboxymethylcellulose (CMC)): 105 % of control
- T/C (dose: 69.87 mg/kg/injection, schedule: Q#A X014 (ip), vehicle: carboxymethylcellulose (CMC)): 89 % of control
- T/C (dose: 125.0 mg/kg/injection, schedule: Q#A X014 (ip), vehicle: carboxymethylcellulose (CMC)): 63 % of control
- T/C (dose: 139.75 mg/kg/injection, schedule: Q#A X014 (ip), vehicle: carboxymethylcellulose (CMC)): 97 % of control
- T/C (dose: 250.0 mg/kg/injection, schedule: Q#A X014 (ip), vehicle: carboxymethylcellulose (CMC)): 124 % of control

Structure (SMILES): NNC(=O)c1nsnc1N
- T/C (dose: 75.0 mg/kg/injection, schedule: Q01DX007 (ip), vehicle: carboxymethylcellulose (CMC)): 97 % of control

Structure (SMILES): CC(=O)OCC1OC(n2ccc(N)nc2=O)C(OC(C)=O)C1OC(C)=O (configuration not stated)
- T/C (dose: 50.0 mg/kg/injection, schedule: Q01DX007 (oral), vehicle: carboxymethylcellulose (CMC)): 44 % of control
- T/C (dose: 100.0 mg/kg/injection, schedule: Q01DX007 (oral), vehicle: carboxymethylcellulose (CMC)): 32 % of control
- T/C (dose: 200.0 mg/kg/injection, schedule: Q01DX007 (oral), vehicle: carboxymethylcellulose (CMC)): 32 % of control
- T/C (dose: 400.0 mg/kg/injection, schedule: Q01DX007 (oral), vehicle: carboxymethylcellulose (CMC)): 63 % of control

Structure (SMILES): CCOC(=O)C(CO)NC(=O)C1(NC(C)=O)CCCC1 (configuration not stated) (Ac-[Ac5c]-[ξS]-OEt)
- T/C (dose: 66.0 mg/kg/injection, schedule: Q01DX007 (ip), vehicle: water): 97 % of control
- T/C (dose: 100.0 mg/kg/injection, schedule: Q01DX007 (ip), vehicle: water): 94 % of control
- T/C (dose: 150.0 mg/kg/injection, schedule: Q01DX007 (ip), vehicle: water): 83 % of control
- T/C (dose: 225.0 mg/kg/injection, schedule: Q01DX007 (ip), vehicle: water): 74 % of control

Structure (SMILES): O=C(Nc1ccc(N=Nc2ccc(S(=O)(=O)O)cc2)cc1)c1ccc(N=Nc2c(O)ccc3cc(S(=O)(=O)O)ccc23)cc1
- T/C (dose: 12.5 mg/kg/injection, schedule: Q01DX007 (ip), vehicle: water): 103 % of control
- T/C (dose: 25.0 mg/kg/injection, schedule: Q01DX007 (ip), vehicle: water): 84 % of control
- T/C (dose: 50.0 mg/kg/injection, schedule: Q01DX007 (ip), vehicle: water): 67 % of control

Structure (SMILES): CO/[N+]([O-])=C\C(=O)N/C=C/C(=O)O
- T/C [4]: 79 % of control

Structure (SMILES): C#C[C@]1(OC(C)=O)CC[C@H]2[C@@H]3CC[C@H]4CC=CC[C@]4(C)[C@H]3CC[C@@]21C
- T/C (dose: 2.5 mg/kg/injection, schedule: Q01DX007 (sc), vehicle: steriod suspending solution): 84 % of control
- T/C (dose: 5.0 mg/kg/injection, schedule: Q01DX007 (sc), vehicle: steriod suspending solution): 71 % of control
- T/C (dose: 10.0 mg/kg/injection, schedule: Q01DX007 (sc), vehicle: steriod suspending solution): 102 % of control

Structure (SMILES): Oc1cc(O)c2c(c1)O[C@H](c1ccc(O)c(O)c1)[C@@H](O)C2
- T/C (dose: 6.25 mg/kg/injection, schedule: Q01DX007 (ip), vehicle: saline): 84 % of control
- T/C [2]: 99 % of control
- T/C [5]: 88 % of control
- T/C [6]: 83 % of control
- T/C [7]: 87 % of control
- T/C (dose: 400.0 mg/kg/injection, schedule: Q01DX007 (ip), vehicle: saline): 80 % of control

Structure (SMILES): CCCCOCN1CCCCC1
- T/C [4]: 64 % of control
- T/C (dose: 100.0 mg/kg/injection, schedule: Q01DX007 (ip), vehicle: carboxymethylcellulose (CMC)): 123 % of control

Structure (SMILES): COC1C(OC(N)=O)C(O)C(Oc2ccc3c(O)c(NC(=O)c4ccc(O)c(CC=C(C)C)c4)c(=O)oc3c2C)OC1(C)C (configuration not stated)
- T/C [7]: 102 % of control

Structure (SMILES): CCOc1ccc2c(c1)CC[C@@H]1[C@@H]2CC[C@@]2(C)[C@H]1CC[C@]2(C)O
- T/C (dose: 0.5 mg/kg/injection, schedule: Q#A X014 (sc), vehicle: steriod suspending solution): 92 % of control
- T/C (dose: 5.0 mg/kg/injection, schedule: Q#A X014 (sc), vehicle: steriod suspending solution): 79 % of control
- T/C (dose: 50.0 mg/kg/injection, schedule: Q#A X014 (sc), vehicle: steriod suspending solution): 72 % of control

Structure (SMILES): [N-]=[N+]=[N-]
- T/C (dose: 1.5 mg/kg/injection, schedule: Q01DX007 (ip), vehicle: carboxymethylcellulose (CMC)): 88 % of control
- T/C (dose: 3.0 mg/kg/injection, schedule: Q01DX007 (ip), vehicle: carboxymethylcellulose (CMC)): 61 % of control
- T/C (dose: 6.0 mg/kg/injection, schedule: Q01DX007 (ip), vehicle: carboxymethylcellulose (CMC)): 76 % of control
- T/C [1]: 69 % of control

Structure (SMILES): COc1cc([C@@H]2c3cc4c(cc3[C@H](O)[C@H]3COC(=O)[C@H]23)OCO4)cc(OC)c1OC
- T/C (dose: 0.45 mg/kg/injection, schedule: Q01DX007 (ip), vehicle: carboxymethylcellulose (CMC)): 90 % of control
- T/C (dose: 0.9 mg/kg/injection, schedule: Q01DX007 (ip), vehicle: carboxymethylcellulose (CMC)): 92 % of control
- T/C (dose: 175.0 micrograms/kg/injection, schedule: Q01DX007 (ip), vehicle: carboxymethylcellulose (CMC)): 88 % of control
- T/C (dose: 350.0 micrograms/kg/injection, schedule: Q01DX007 (ip), vehicle: carboxymethylcellulose (CMC)): 77 % of control
- T/C (dose: 1400.0 micrograms/kg/injection, schedule: Q01DX007 (ip), vehicle: carboxymethylcellulose (CMC)): 71 % of control

Structure (SMILES): CC(=O)Nc1cc2c(cc1Br)-c1ccc(F)cc1C2
- T/C (dose: 222.0 mg/kg/injection, schedule: Q01DX007 (ip), vehicle: other): 56 % of control
- T/C (dose: 333.0 mg/kg/injection, schedule: Q01DX007 (ip), vehicle: other): 44 % of control
- T/C (dose: 500.0 mg/kg/injection, schedule: Q01DX007 (ip), vehicle: other): 22 % of control

Structure (SMILES): C=CCSc1ncnc2c1ncn2C1OC(CO)C(O)C1O (configuration not stated)
- T/C [5]: 80 % of control and 83 % of control
- T/C [6]: 35 % of control and 52 % of control
- T/C [7]: 34 % of control and 49 % of control
